How the values were obtained:
[1] = Solid state polarisation by solid state 13C-NMR after DNP; type: physicochemical; details: DNP at 1.2 K, 3.35 T, microwave 93.90 GHz, trityl radical and Gd-chelate
Source text: The level of polarisation may for instance be determined by solid state ^13C-NMR measurements in solid hyperpolarised ^13C-fumarate, e.g. solid hyperpolarised ^13C-fumarate obtained by dynamic nuclear polarisation (DNP) of ^13C-fumarate. The solid state ^13C-NMR measurement preferably consists of a simple pulse-acquire NMR sequence using a low flip angle. The signal intensity of the hyperpolarised ^13C-fumarate in the NMR spectrum is compared with signal intensity of ^13C-fumarate in a NMR spectrum acquired before the polarisation process. The level of polarisation is then calculated from the ratio of the signal intensities of before and after polarisation.
The probe is inserted into the probe-retaining container, submerged in the liquid helium and irradiated with microwaves, preferably at a frequency of about 94 GHz at 200 mW. The level of polarisation may be monitored by for instance acquiring solid state ^13C-NMR signals of the probe during microwave irradiation. Generally, a saturation curve is obtained in a graph showing NMR signal vs. time. […] A solid state ^13C-NMR measurement suitably consists of a simple pulse-acquire NMR sequence using a low flip angle. The signal intensity of the dynamic nuclear polarised nuclei, i.e. ^13C nuclei in ^13C-fumaric acid or ^13C-fumarate is compared with the signal intensity of the ^13C nuclei in ^13C-fumaric acid or ^13C-fumarate before DNP. The polarisation is then calculated from the ratio of the signal intensities before and after DNP.
To a micro test tube was added ^13C1,4-fumaric acid (33.5 mg, 0.284 mmol), TRIS (42 mg, 0.347 mmol) and 22.5 μl water. The test tube was gently heated and sonicated to dissolve all compounds. […] Polarisation was followed by solid state ^13C-NMR and the solid state polarisation was determined to be 25%.

mouse hind leg muscle = assay: In vivo 13C-MR spectroscopy of mouse leg before and after ischemic injury; design: species or system C57Bl/6 mouse
Description: 175 μl of an imaging medium comprising hyperpolarised sodium ^13C1,4-fumarate which was prepared as described in Example 2 was injected into a C57Bl/6 mouse over a time period of 6 s. The sodium ^13C1,4-fumarate concentration in said imaging medium was about 50 mM. A surface coil (tuned for carbon) was positioned around the leg muscle and signals of ^13C-fumarate and ^13C-malate were detected by ^13C-MR spectroscopy which was carried out in a 2.4 T Bruker spectrometer to generate a metabolic profile. A total of 60 ^13C-spectra were acquired with a repetition time of 2 s and 15 degree RF pulses. Ischemia in a mouse leg muscle was made by strangulation of the hind leg muscle. Following an ischemic period of 30 min the mouse leg muscle was re-perfused for one hour. In this Example, the ^13C-malate signal is approximately 0.5% of the ^13C-fumarate signal in the mouse muscle before ischemia. Following ischemia and 5 min. reperfusion the ^13C-malate signal is approximately 1.5% of the ^13C-fumarate signal. After 60 min. reperfusion the ^13C-malate signal is approximately 4% of the ^13C-fumarate signal. With an identical protocol signals of ^13C-pyruvate and ^13C-lactate were detected by ^13C-MR spectroscopy (polarisation of pyruvate was carried out as described in Example 2 of WO-A-2006/011809).

[2] = Liquid state polarisation and T1 by liquid state 13C-NMR; type: physicochemical; details: for T1: at 9.4 T; for Liquid state polarisation: liquid state 13C-NMR at 400 MHz, after 90 minutes DNP and dissolution
Description: In a similar way, the level of polarisation for dissolved hyperpolarised ^13C-fumarate may be determined by liquid state NMR measurements. Again the signal intensity of the dissolved hyperpolarised ^13C-fumarate is compared with the signal intensity of the dissolved ^13C-fumarate before polarisation. The level of polarisation is then calculated from the ratio of the signal intensities of ^13C-fumarate before and after polarisation.
After 90 minutes of dynamic nuclear polarisation, the obtained frozen polarised composition was dissolved in 6 ml of a solution prepared from 5.87 ml water (100 mg/l EDTA added), 133 μl NaOH aq (2 M) and 30 mg NaCl. The pH of the final solution containing the dissolved composition was 7.2. The ^13C1,4-fumarate concentration in said final solution was 50 mM.
Liquid state polarisation was determined by liquid state ^13C-NMR at 400 MHz to be 21%. T1 at 9.4 T was 34 s.

[3] = tested on: Dicarboxylate Transporter (DCT); assay: In vitro hyperpolarized malate production with transporter inhibition; type: cell-based
[4] = tested on: MDA-MB-231 cells (human epithelial breast cell adenocarcinoma); assay: In vitro 13C-MR detection, conversion of 13C-fumarate to 13C-malate; type: cell-based
Description: (§1) 50 μl (2.7 mM in sodium ^13C1-fumarate-d2) of an imaging medium which was prepared according to Example 3 was mixed into 8*10^6 MDA-MB-231 cells (human epithelial breast cell adenocarcinoma). Signals of ^13C-fumarate and ^13C-malate were detected by acquiring a set of ^13C-MR spectra every 5 s with a 15 degree RF pulse. The result is shown in FIG. 1: ^13Cmalate was building up over time. The conversion rate was 70 μmol/min*g soluble protein with a peak ^13C-malate signal after approximately 30 s. With an identical protocol conversion rates were calculated for three other human cancer cell lines, these are compared in Table 1.
(§2) Table. […] Formation of ^13C1,4-malate-d2 from ^13C1-fumarate is calculated for the 4 investigated cell lines (n≧3). […] This cell line is highly invasive and hormone-insensitive and represents a late stage cancer. Formation rate of malate varies greatly between the two prostate cancer lines, with a 7 times higher conversion rate in the more aggressive PC-3 line, compared to DU-145.

DU-145 cells = assay: as above; type: cell-based, human; details: n≧3
Description: as §1, §2

H-EMC-SS cells = assay: as above; type: cell-based, human; details: n≧3
Description: as §1, §2

PC-3 cells = assay: as above; type: cell-based, human
Description: as §1, §2

[5] = tested on: subcutaneous mouse lymphoma (EL-4); assay: 13C-dynamic imaging of subcutaneous mouse lymphoma with and without etoposide treatment; type: in vivo, C57Bl/6 mouse; details: EL-4 tumours, 22-26 hours after etoposide injection, n=5, signal normalized to maximum fumarate signal
Description: EL-4 cells were injected into a C57Bl/6 mouse to generate a subcutaneous mouse lymphoma. On day 9 after implantation, the EL4 tumour was imaged. 175 μl of an imaging medium comprising hyperpolarised sodium ^13C1-fumarate-d2 which was prepared as described in Example 3 was injected into the mouse over a time period of 6 s. The sodium ^13C1-fumarate-d2 concentration in said imaging medium was about 20 mM. A surface coil (tuned for carbon) was positioned over the subcutaneous tumour and signals of ^13C-fumarate and ^13C-malate were detected by ^13C-MR spectroscopy which was carried out using a 2.4 T Bruker spectrometer to generate a metabolic profile of the tumour and the surrounding healthy tissue. A slice selective FID was acquired with a 10° RF flip angle, TR=3 s, and 60 repetitions. […] Signal amplitudes for both malate and fumarate were normalized to the maximum fumarate signal and were measured as a function of time. […] Fumarase may be an ideal candidate enzyme for this because it requires no cofactors for its activity (so its activity is solely determined by the availability of the enzyme and the substrate) and the rate of conversion is very fast in vivo (about ˜2-4 fold faster than lactate dehydrogenase) making it a sensitive test.

cells = assay: Further in vitro experiments, malate production after etoposide treatment; type: cell-based

**Q.** With `O=[13C](O)/C=C/[13C](=O)O` [^13C1,4-fumaric acid] as the molecule, how does the solid state polarisation [1] read?
**A.** 30%

**Q.** For `CC(=O)[13C](=O)O` [^13C-pyruvate, reference compound], which “13C-lactate signal relative to pyruvate signal” value (mouse hind leg muscle; 60 min reperfusion) is on record?
**A.** back to levels comparable to the healthy muscle

**Q.** And the “13C-lactate signal relative to pyruvate signal” value (mouse hind leg muscle; directly after ischemia)?
**A.** increases to above the pyruvate signal

**Q.** What about the “13C-lactate signal as % of the 13C-pyruvate signal” value (mouse hind leg muscle; healthy muscle) of the same molecule?
**A.** approximately 40%

**Q.** With `O=[13C]([O-])/C=C/[13C](=O)[O-].[Na+].[Na+]` [sodium ^13C1,4-fumarate] as the molecule, how does the T1 [2] read?
**A.** 34 s

**Q.** And the Liquid state polarisation [2]?
**A.** 29%

**Q.** And the “13C-malate signal as % of the 13C-fumarate signal” value (“13C-malate signal as %” for short) (mouse hind leg muscle; 30 min ischemia, 5 min reperfusion)?
**A.** approximately 1.5%

**Q.** And the “13C-malate signal as %” value (mouse hind leg muscle; 30 min ischemia, 60 min reperfusion)?
**A.** approximately 4%

**Q.** What about the “13C-malate signal as %” value (mouse hind leg muscle; mouse muscle before ischemia) of the same molecule?
**A.** approximately 0.5%

**Q.** With `O=C(O)CCC(=O)O` [succinate] as the molecule, how does the “change in malate production” value ([3]; excess (50 mM) of unlabelled, non-hyperpolarized succinate added) read?
**A.** only a small reduction

**Q.** For `[2H]/C(C(=O)O)=C(/[2H])[13C](=O)O` [^13C1-fumaric acid-d2], which solid state polarisation [1] is on record?
**A.** 41%

**Q.** For TRIS-^13C1,4-fumarate, which solid state polarisation [1] is on record?
**A.** 25%

**Q.** For `[Cl-].[Li+]` [lithium chloride], which “change in hyperpolarized malate production” value ([3]; provisional experiments with lithium chloride) is on record?
**A.** only a small reduction

**Q.** Which T1 [2] does the source give for `O=[13C](O)/C=C/[13C](=O)O` [^13C1,4-fumarate] here?
**A.** 34 s

**Q.** What about the Liquid state polarisation [2] of the same molecule?
**A.** 21%

**Q.** With `[2H]/C(C(=O)[O-])=C(/[2H])[13C](=O)[O-].[Na+].[Na+]` [sodium ^13C1-fumarate-d2] as the molecule, how does the “conversion rate (fumarate to malate)” value ([4]; 8*10^6 MDA-MB-231 cells, 50 μl imaging medium (2.7 mM), FIG. 1) read?
**A.** 70 μmol/min*g soluble protein

**Q.** What about the Malate formation rate ([4]; MDA-MB-231 cells, n≧3) of the same molecule?
**A.** 77 ± 19 μmol min^−1 g^−1 protein

**Q.** And the “time of peak 13C-malate signal” value ([4]; MDA-MB-231 cells, spectra every 5 s)?
**A.** approximately 30 s

**Q.** What about the T1 [2] of the same molecule?
**A.** 44 s

**Q.** And the Liquid state polarisation [2]?
**A.** 40%

**Q.** And the Malate formation rate (DU-145 cells)?
**A.** 6 ± 2 μmol min^−1 g^−1 protein

**Q.** And the Malate formation rate (H-EMC-SS cells)?
**A.** 40 ± 14 μmol min^−1 g^−1 protein

**Q.** What about the Malate formation rate (PC-3 cells; PC-3 cells, n≧3) of the same molecule?
**A.** 42 ± 0.5 μmol min^−1 g^−1 protein

**Q.** What about the “conversion rate in PC-3 compared to DU-145” value (PC-3 cells; prostate cancer lines PC-3 vs DU-145) of the same molecule?
**A.** 7 times

**Q.** With `COc1cc([C@@H]2c3cc4c(cc3[C@@H](O[C@@H]3O[C@@H]5CO[C@@H](C)O[C@H]5[C@H](O)[C@H]3O)[C@H]3COC(=O)[C@H]23)OCO4)cc(OC)c1O` [etoposide] as the molecule, how does the “malate signal compared to untreated tumours” value [5] read?
**A.** 65%

**Q.** What about the malate production (cells; after 14 hrs of treatment with etoposide) of the same molecule?
**A.** increase in malate production

**Q.** And the malate production (cells; after 16 hrs of treatment with etoposide)?
**A.** further increase
